Experimental data taken from patent US6623723B2, “Method for treating bronchial constriction and bronchospasm” (Cellular Sciences Inc., priority 2001, dated 2003).

Tested on: subjects with mild bronchial asthma
Assay: Lung function (FEV-1 and PEF by spirometry) after a single inhaled dose in mild asthmatics
Type: in vivo, human
Conditions: single 5 ml inhaled dose
Procedure: Three concentrations of sodium pyruvate were studied; 0.5 mM, 1.5 mM and 5.0 mM. Sixty (60) subjects completed the study protocol. The 60 subjects included fifteen (15) non-asthmatic control individuals and forty-five (45) individuals with mild bronchial asthma. […] The total subject population was composed of 40 females and 20 males with a mean population age of 36.6 years (range of 18-66 years).
Individuals with mild bronchial asthma were divided into three groups of 15 subjects; each group received one of the three concentrations of sodium pyruvate. Each subject each inhaled a single dose of physiological saline (Visit 1) and on a return visit inhaled a single dose of 5.0 ml of one of the concentrations of sodium pyruvate (Visit 2).
Lung function assessments and vital signs were monitored at baseline (pre-dose) and at 15 minutes, 30 minutes 1 hour, 2 hours and 4 hours post administration. On a return visit (Visit 2), each subject inhaled a single 5 ml dose of sodium pyruvate in physiological saline. The physiological lung functions assessed included Forced Expiratory Volume in One Second (FEV-1) and Peak Expiratory Flow (PEF).
An FEV-1 and PEF values are obtained during routine spirometry testing. FEV-1 is the volume of air expelled in the first second of a forced expiration starting from full inspiration. It is the most widely accepted indicator of obstructive lung disease severity and used because it is objective and reproducible. PEF is the greatest flow rate that can be sustained for 10 milliseconds on forced expiration from full inflation of the lungs. Changes of greater than 10% FEV-1 and greater than 25% in PEF are generally accepted as clinically relevant ant were used as standards in data evaluation for this study.

CC(=O)C(=O)[O-].[Na+] [sodium pyruvate]
percent change in FEV-1 (0.5 mM sodium pyruvate, 15 minutes (p=0.012), 30 minutes (p=0.039), 1 hour (p=0.054), 2 hours (p=0.0001), compared to inhalation of physiological saline): greater than 10% | percent change in PEF (0.5 mM sodium pyruvate, 15 minutes (p=0.014), 30 minutes (p=0.027), 1 hour (p=0.012), 2 hours (p=0.024), 4 hours (p=0.018), compared to inhalation of physiological saline): greater than 25% | change in FEV-1 (1.5 mM sodium pyruvate): No significant change | change in PEF (1.5 mM sodium pyruvate): No significant change | change in FEV-1 (5.0 mM sodium pyruvate): No significant change | change in PEF (5.0 mM sodium pyruvate): No significant change
